Assay results from patent publication US8882877B2, “Boron-containing synergistic urea and preparation method and application thereof” (Beijing J-Tec Technology Co., Ltd, priority 2012, dated 2014).

Assays:
celery = assay: Celery fertilizer test (equivalent and decrement fertilizer); type: in vivo
Excerpt: Test Three: Celery Fertilizer Test 1. Test material: The tested fertilizer is the boron-containing synergistic urea developed and supplied by Beijing J-Tec Technology Co., Ltd. (the boron-containing synergistic urea (1) in Embodiment 3) while the control fertilizer is ordinary small granular urea and large granular urea in line with national standards: the tested vegetable is celery. Area under jurisdiction of […], Shandong Province 3. Test Method: equivalent fertilizer test area and decrement fertilizer test area are arranged, two treatment areas are provided in each test area, and each treatment area is arranged repeatedly for 3 times, ranked in random area and group. Treatment Area 1: the boron-containing synergistic urea is applied, calculated by 70 kg per mu, and flushed together with water after emergence of seedlings; Treatment Area 2: ordinary small granular urea (as a control area, ck), calculated by 70 kg per mu, and flushed together with water after emergence of seedlings. Treatment Area 1: the boron-containing synergistic urea is applied with a decrement of 20%, calculated by 56 kg per mu, base fertilizer and additional fertilizer each makes up 50%; Treatment Area 2: ordinary large granular urea, calculated by 70 kg per mu, base fertilizer and additional fertilizer each makes up 50%. 4. Test Requirement: The celery in each treatment area is harvested, weighed, and calculated separately during each collection and harvest. No other fertilizer is applied during the whole test period, and other cultivation and management measures are the same.

tomato = assay: Tomato fertilizer test (equivalent and decrement fertilizer); type: in vivo
Excerpt: Test Four: Tomato Fertilizer Test
Test Site Laiyang: City, Shandong Province.
Grow seedling in greenhouse at Feb. 24, 2011, and plant in the greenhouse with a tomato plantation density of 4200 plant/mu.
(§1) 1. The tested fertilizer is the boron-containing synergistic urea developed and supplied by Beijing J-Tec Technology Co., Ltd. (the boron-containing synergistic urea (1) in Embodiment 3, under a trade name of “polypeptide chelated potassium”) while the control fertilizer is ordinary small granular urea and large granular urea in line with national standards; the tested vegetable is tomato (variety of “Millennium”, ? ).
(§2) 2. Test Method: equivalent fertilizer test area and decrement fertilizer test area are arranged, two treatment areas are provided in each test area, and each treatment area is arranged repeatedly for 3 times, ranked in random area and group, each treatment area has an area of 20 m^2 (5 m long, 4 m wide).
Treatment Area 1: the boron-containing synergistic urea is applied, calculated by 70 kg per mu, and flushed together with water after emergence of seedlings;
Treatment Area 2: ordinary small granular urea (as a control area, ck), calculated by 70 kg per mu, and flushed together with water after emergence of seedlings.
Treatment Area 1: the boron-containing synergistic urea is applied with a decrement of 20%, calculated by 56 kg per mu, base fertilizer and additional fertilizer each makes up 50%;
Treatment Area 2: ordinary large granular urea (as a control area, ck), calculated by 70 kg per mu, base fertilizer and additional fertilizer each makes up 50%.
3. Test Requirement: The tomato in each treatment area is harvested, weighed, and calculated separately during each collection and harvest. No other fertilizer is applied during the whole test period, and other cultivation and management measures are the same.
Select one plot (12 plots in total, indicated as 1st plot, 2nd plot and 3rd plot corresponding to each test) randomly from each treatment area 1 and treatment area 2 (control area) respectively, all are 1 m long, 1.45 m wide, and the harvested tomato is weighed on site, and results are as follows: […]

apple tree = assay: Apple tree fertilizer test (equivalent and decrement fertilizer); type: in vivo, apple tree (Red Fuji apple); conditions: Control Test Area, ordinary urea 70 kg per mu
Excerpt: Test Five: Apple Tree Fertilizer Test 1. Test Fertilizer: the tested fertilizer is the boron-containing synergistic urea developed and supplied by Beijing J-Tec Technology Co., Ltd. (the boron-containing synergistic urea (1) in Embodiment 3) while the control fertilizer is ordinary small granular urea and large granular urea in line with national standards the tested fruit tree is apple tree (variety of “Red Fuji apple”, ? ). 2. Test Site: […], Shandong Province, 3. Tested Variety: apple tree of four years old, variety is Red Fuji apple, planting space is 2 m×3 m, plants with moderate growth, similar tree vigor, and substantially consistent yield, and conventional orchard management is conducted before the test. 4. Test Method: equivalent fertilizer test area and decrement fertilizer test area are arranged, two treatment areas are provided in each test area, 3 tested plants are included in each treatment area and each treatment area is arranged repeatedly for 3 times, ranked in random area and group; The fertilizer is applied in small holes near the plants, and the fertilizing periods are fertilizer application after leaves falling in autumn and additional fertilizer application during fruit expanding period (July and August). Treatment Area 1: the boron-containing synergistic urea is applied, calculated by 70 kg per mu, and flushed together with water; Treatment Area 2: ordinary small granular urea (as a control area, ck), calculated by 70 kg per mu, and flushed together with water. Treatment Area 1: the boron-containing synergistic urea is applied with a decrement of 20%, calculated by 56 kg per mu, base fertilizer and additional fertilizer each makes up 50%; Treatment Area 2: ordinary large granular urea (as a control area, ck), calculated by 70 kg per mu, base fertilizer and additional fertilizer each makes up 50%. Make statistical analysis to flowering numbers and petal numbers in each flower during full-blossom period in spring, and make statistical analysis to fruit setting percentage after full-blossom period and before flower thinning. Measure and record once a month after growth of new shoots; Pick 30 fruits randomly from different portions after fruit ripening, and weigh the single fruit with an electronic balance scale, measure the longitudinal diameter and the transverse diameter with a vernier caliper; observe the fruit surface and the coloring of the fruit; determine the hardness of fruit with a hardometer.

rape = assay: Rape fertilizer test (topdressing); type: in vivo; conditions: topdressing 20 kg per mu
Excerpt: Test Two: Rape Fertilizer Test 1. Test Material: The tested fertilizer is the boron-containing synergistic urea developed and supplied by Beijing J-Tec Technology Co., Ltd. (the boron-containing synergistic urea (1) in Embodiment 3) while the control fertilizer is ordinary urea available in the market. Nanyang site: Yuanxiang Village, Nanyang Town, Qidong City of Jiangsu Province, an area of 4 mu, rape variety is “Shi Li Jia ? )”. Lvsi site: Nanxinqiao Village, […] Town, Qidong City, an area of 5 mu. 3. Test Method: the boron-containing synergistic urea is used as a topdressing fertilizer (additional fertilizer), 20 kg per mu; while the control field adopts ordinary urea (commercially available), 20 kg per mu. 4. Assessment Content: prior to harvest, field assessments such as density, plant height, effective branch, yield structure are conducted; after harvest, recount the actual yield, and the results are shown in Table 3.

bacterial wilt = assay: Tomato disease resistance: incidence of bacterial wilt; type: in vivo; conditions: tomato plants in test area vs control area (ck)
Excerpt: as §1, §2
1. Tomato Growing Potential and Disease Resistance

soybean = assay: Soybean fertilizer field plot test; type: in vivo
Excerpt: Test One: Soybean Fertilizer Test During the process of growth, the moisture and temperature are basically normal, which have no particular influence on the test. The basic information for the test plot is: mound albic soil, organic matter content 3.73%, and thickness of black soil layer is 18-20 cm, 1. The tested fertilizer is the boron-containing synergistic urea developed and supplied by Beijing J-Tec Technology Co., Ltd. (the boron-containing synergistic urea (1) in Embodiment 3) while the control fertilizer is ordinary urea available in the market. 2. Field tests adopt plot test (the test plot is located in Haluo Town, […], Shandong Province), three test areas are provided, each test area is divided into three treatment areas, each treatment area is 25.2 m^2, and the three test areas are tested in parallel. Apply base fertilizers uniformly in each test area and sow 4 rows in each treatment area, and subsequently apply additional fertilizers in the three treatment areas as below: Treatment Area 1: additionally apply 5 kg boron-containing synergistic urea once per mu in the flowering and pod bearing period of the soybean; Treatment Area 2: additionally apply 4 kg boron-containing synergistic urea once per mu in the flowering and pod bearing period of the soybean; Treatment Area 3 (control area, ck): additionally apply 5 kg ordinary urea once per mu in the flowering and pod bearing period of the soybean as a control; 4. Adopt normal field management in the growth period of the soybean, harvest and monitor the yield in the mature period respectively, and take the average values of the corresponding treatment areas in the three test areas as the statistical results, see Table 1.

[1] = Equivalent fertilizer test and its control, 70 kg per mu
[2] = Equivalent fertilizer test and its control, 70 kg per mu, flushed with water
[3] = Lvsi site, two months after fertilizer application
[4] = Nanyang site, two months after fertilizer application
[5] = Treatment Area 1 / 3 (ck): 5 kg per mu
[6] = Treatment Area 1 / 3 (ck): 5 kg per mu once in flowering and pod bearing period
[7] = Decrement fertilizer test (56 kg per mu) and its control (70 kg per mu)
[8] = Decrement fertilizer test (synergistic urea 56 kg per mu) and its control (large granular urea 70 kg per mu)

NC(N)=O [ordinary small granular urea, urea]
Yield (celery; Equivalent fertilizer test, 70 kg per mu, 1st plot (1 m x 1.45 m), 52 days after applying fertilizer): 6.6 kg | Yield (celery; Equivalent fertilizer test, 70 kg per mu, 2nd plot, 52 days after applying fertilizer): 7.5 kg | Yield (celery; Equivalent fertilizer test, 70 kg per mu, 3rd plot, 52 days after applying fertilizer): 8.15 kg | Yield (celery; Equivalent fertilizer test, 70 kg per mu, three plots in total): 22.25 kg | Average Yield among three plots (tomato; [1]): 114.5 kg | Average Yield per mu (tomato; [1]): 3863.3 kg | Yield 1st plot (tomato; [2]): 111.6 kg | Yield 2nd plot (tomato; [2]): 113.8 kg | Yield 3rd plot (tomato; [2]): 118.0 kg

NC(N)=O [ordinary urea, urea]
Fruit Setting Percentage (apple tree): 74.6% | Increment of New Shoots (apple tree): 34.50 cm | Leaf Weight (apple tree): 79.74 g | Single Fruit Weight (apple tree): 202.1 g | 1000-Grain Weight (rape; Average of the two test sites): 4.1 g | Density (rape; Average of the two test sites): 5550 plant | Effective Branch (rape; Average of the two test sites): 27 each | Grains per pod (rape; Average of the two test sites): 19.8 grain | Plant Height (rape; Average of the two test sites): 190.5 cm | Yield (rape; Average of the two test sites): 262.7 kg/mu | pods per plant (rape; Average of the two test sites): 583 pod | Yield (rape; Lvsi site): 251.7 kg/mu | 1000-Grain Weight (rape; [3]): 3.7 g | Density (rape; [3]): 5550 plant | Effective Branch (rape; [3]): 26 each | Grains per pod (rape; [3]): 20.5 grain | Plant Height (rape; [3]): 185 cm | pods per plant (rape; [3]): 598 pod | Yield (rape; Nanyang site): 269.5 kg/mu | 1000-Grain Weight (rape; [4]): 4.5 g | Density (rape; [4]): 5550 plant | Effective Branch (rape; [4]): 28 each | Grains per pod (rape; [4]): 19 grain | Plant Height (rape; [4]): 196 cm | pods per plant (rape; [4]): 568 pod | incidence of bacterial wilt (bacterial wilt): 4.54% | Practical Yield (soybean; [5]): 131.8 kg/mu | Theoretical Yield (soybean; [5]): 134.5 kg/mu | 100-Grain Weight (soybean; [6]): 15.7 g | Diseased Grain Rate (soybean; [6]): 9.7% | Grains Weight (soybean; [6]): 7.5 g/Plant | Grains per Plant (soybean; [6]): 65.8 Grains/Plant | Plant Height (soybean; [6]): 77.4 cm | Unfilled Grains (soybean; [6]): 28.9 Grains/Plant | Worm Eaten Rate (soybean; [6]): 17.9% | pods per plant (soybean; [6]): 30.1 Pods/Plant

NC(N)=O [ordinary large granular urea, urea]
Yield (celery; 20% decrement fertilizer test, 1st plot, synergistic urea 56 kg per mu, control large granular urea 70 kg per mu): 6.8 kg | Yield (celery; 20% decrement fertilizer test, 2nd plot, synergistic urea 56 kg per mu, control large granular urea 70 kg per mu): 6.0 kg | Yield (celery; 20% decrement fertilizer test, 3rd plot, synergistic urea 56 kg per mu, control large granular urea 70 kg per mu): 5.7 kg | Yield (celery; 20% decrement fertilizer test, three plots in total, synergistic urea 56 kg per mu, control 70 kg per mu): 18.5 kg | observation of celery leaves (celery; Decrement fertilizer test, 30 days after sowing): green and thin leaves | Average Yield among three plots (tomato; [7]): 116.0 kg | Average Yield per mu (tomato; [7]): 3896.7 kg | Yield 1st plot (tomato; [8]): 114.3 kg | Yield 2nd plot (tomato; [8]): 118.1 kg | Yield 3rd plot (tomato; [8]): 115.6 kg
